According to ChEMBL document CHEMBL1921668, “Discovery of new aminopyrimidine-based phosphoinositide 3-kinase beta (PI3Kβ) inhibitors with selectivity over PI3Kα” (Bioorg Med Chem Lett, 2011):

Assays:
[1] = target: T1, Phosphatidylinositol 4,5-bisphosphate 3-kinase catalytic subunit beta isoform (Homo sapiens, UniProt P42338); experiment: Inhibition of PI3Kbeta assessed as enzyme activity at 10 uM relative to control; parameters: scale not given: the % may be the effect or the level left
Target sequence in this assay (P42338 whole entry, looked up, canonical isoform): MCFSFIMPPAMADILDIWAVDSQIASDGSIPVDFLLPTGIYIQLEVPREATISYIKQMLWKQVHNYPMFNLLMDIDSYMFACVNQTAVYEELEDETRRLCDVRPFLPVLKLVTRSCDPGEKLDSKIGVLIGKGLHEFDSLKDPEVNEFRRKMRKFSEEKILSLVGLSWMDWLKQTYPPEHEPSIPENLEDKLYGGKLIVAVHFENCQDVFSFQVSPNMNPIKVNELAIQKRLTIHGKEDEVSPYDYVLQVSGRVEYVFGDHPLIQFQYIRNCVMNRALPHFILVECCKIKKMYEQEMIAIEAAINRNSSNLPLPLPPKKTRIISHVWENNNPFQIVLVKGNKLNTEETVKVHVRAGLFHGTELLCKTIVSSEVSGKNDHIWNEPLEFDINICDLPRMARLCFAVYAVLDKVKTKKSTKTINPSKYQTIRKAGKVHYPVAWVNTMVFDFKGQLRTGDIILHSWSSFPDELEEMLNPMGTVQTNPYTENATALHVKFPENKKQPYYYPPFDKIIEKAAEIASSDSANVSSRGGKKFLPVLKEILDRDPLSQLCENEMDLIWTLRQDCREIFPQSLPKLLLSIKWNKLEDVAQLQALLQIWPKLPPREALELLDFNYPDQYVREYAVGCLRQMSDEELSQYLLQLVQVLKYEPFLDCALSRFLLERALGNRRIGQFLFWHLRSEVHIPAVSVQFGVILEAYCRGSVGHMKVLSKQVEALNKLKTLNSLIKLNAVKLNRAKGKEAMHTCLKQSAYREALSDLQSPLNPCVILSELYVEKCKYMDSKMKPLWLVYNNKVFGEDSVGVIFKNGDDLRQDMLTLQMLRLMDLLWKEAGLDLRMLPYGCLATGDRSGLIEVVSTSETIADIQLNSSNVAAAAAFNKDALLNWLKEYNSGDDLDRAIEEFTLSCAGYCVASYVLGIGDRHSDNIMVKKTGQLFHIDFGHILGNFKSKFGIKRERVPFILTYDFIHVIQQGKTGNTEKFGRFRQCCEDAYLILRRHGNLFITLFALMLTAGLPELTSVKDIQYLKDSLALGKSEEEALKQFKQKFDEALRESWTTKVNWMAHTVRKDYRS

[2] = target: T2, Phosphatidylinositol 4,5-bisphosphate 3-kinase catalytic subunit alpha isoform (Homo sapiens, UniProt P42336); experiment: Inhibition of PI3Kalpha assessed as enzyme activity at 10 uM relative to control; parameters: scale not given: the % may be the effect or the level left
[3] = target: T1, Phosphatidylinositol 4,5-bisphosphate 3-kinase catalytic subunit beta isoform; experiment: Binding affinity to PI3Kbeta
Target sequence in this assay (P42338 whole entry, canonical isoform): as the sequence (P42338 whole entry, looked up, canonical isoform) above

[4] = target: Phosphatidylinositol 4,5-bisphosphate 3-kinase catalytic subunit gamma isoform (Homo sapiens) (UniProt P48736); experiment: Inhibition of PI3Kgamma assessed as enzyme activity relative to control; parameters: scale not given: the % may be the effect or the level left
[5] = target: T3, Phosphatidylinositol 4,5-bisphosphate 3-kinase catalytic subunit delta isoform (Homo sapiens) (UniProt O00329); experiment: Inhibition of PI3Kdelta assessed as enzyme activity relative to control; parameters: concentration or dose not given beside the values
T3 sequence (whole entry): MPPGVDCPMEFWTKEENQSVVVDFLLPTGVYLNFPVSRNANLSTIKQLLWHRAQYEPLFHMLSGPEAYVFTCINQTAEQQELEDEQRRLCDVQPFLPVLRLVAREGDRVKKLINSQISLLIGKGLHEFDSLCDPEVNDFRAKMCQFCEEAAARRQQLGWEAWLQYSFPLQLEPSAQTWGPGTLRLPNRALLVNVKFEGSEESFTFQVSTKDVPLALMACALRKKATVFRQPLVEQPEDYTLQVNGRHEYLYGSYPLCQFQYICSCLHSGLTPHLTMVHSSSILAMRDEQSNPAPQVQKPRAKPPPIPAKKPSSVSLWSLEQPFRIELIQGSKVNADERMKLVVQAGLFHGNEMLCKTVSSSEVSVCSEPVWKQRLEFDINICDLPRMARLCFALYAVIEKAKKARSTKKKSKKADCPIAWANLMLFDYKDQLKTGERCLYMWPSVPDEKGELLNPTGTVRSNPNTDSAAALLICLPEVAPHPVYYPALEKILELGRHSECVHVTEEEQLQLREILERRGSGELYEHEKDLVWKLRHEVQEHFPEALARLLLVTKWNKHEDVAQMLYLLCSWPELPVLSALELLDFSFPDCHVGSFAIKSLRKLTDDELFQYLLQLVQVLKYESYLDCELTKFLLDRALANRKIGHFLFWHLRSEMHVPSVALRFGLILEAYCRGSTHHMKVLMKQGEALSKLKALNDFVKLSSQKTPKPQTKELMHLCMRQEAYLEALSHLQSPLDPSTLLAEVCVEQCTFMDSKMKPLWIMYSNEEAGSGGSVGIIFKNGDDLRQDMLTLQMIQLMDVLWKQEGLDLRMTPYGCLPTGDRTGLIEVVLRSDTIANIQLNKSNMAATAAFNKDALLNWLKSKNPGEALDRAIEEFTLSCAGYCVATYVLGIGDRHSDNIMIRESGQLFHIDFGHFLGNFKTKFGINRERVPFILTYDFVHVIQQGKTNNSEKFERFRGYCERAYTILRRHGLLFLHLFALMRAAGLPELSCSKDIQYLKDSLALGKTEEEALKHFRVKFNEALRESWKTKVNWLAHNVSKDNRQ

[6] = target: Serine/threonine-protein kinase mTOR (Homo sapiens) (UniProt P42345); experiment: Inhibition of mTOR assessed as enzyme activity relative to control; parameters: concentration or dose not given beside the values
T47D = experiment: Antiproliferative activity against human T47D cells by MTT assay; format: functional, cell-based
[7] = target: T2, Phosphatidylinositol 4,5-bisphosphate 3-kinase catalytic subunit alpha isoform; experiment: Binding affinity to PI3Kalpha

T2 sequence (P42336 whole entry, canonical isoform): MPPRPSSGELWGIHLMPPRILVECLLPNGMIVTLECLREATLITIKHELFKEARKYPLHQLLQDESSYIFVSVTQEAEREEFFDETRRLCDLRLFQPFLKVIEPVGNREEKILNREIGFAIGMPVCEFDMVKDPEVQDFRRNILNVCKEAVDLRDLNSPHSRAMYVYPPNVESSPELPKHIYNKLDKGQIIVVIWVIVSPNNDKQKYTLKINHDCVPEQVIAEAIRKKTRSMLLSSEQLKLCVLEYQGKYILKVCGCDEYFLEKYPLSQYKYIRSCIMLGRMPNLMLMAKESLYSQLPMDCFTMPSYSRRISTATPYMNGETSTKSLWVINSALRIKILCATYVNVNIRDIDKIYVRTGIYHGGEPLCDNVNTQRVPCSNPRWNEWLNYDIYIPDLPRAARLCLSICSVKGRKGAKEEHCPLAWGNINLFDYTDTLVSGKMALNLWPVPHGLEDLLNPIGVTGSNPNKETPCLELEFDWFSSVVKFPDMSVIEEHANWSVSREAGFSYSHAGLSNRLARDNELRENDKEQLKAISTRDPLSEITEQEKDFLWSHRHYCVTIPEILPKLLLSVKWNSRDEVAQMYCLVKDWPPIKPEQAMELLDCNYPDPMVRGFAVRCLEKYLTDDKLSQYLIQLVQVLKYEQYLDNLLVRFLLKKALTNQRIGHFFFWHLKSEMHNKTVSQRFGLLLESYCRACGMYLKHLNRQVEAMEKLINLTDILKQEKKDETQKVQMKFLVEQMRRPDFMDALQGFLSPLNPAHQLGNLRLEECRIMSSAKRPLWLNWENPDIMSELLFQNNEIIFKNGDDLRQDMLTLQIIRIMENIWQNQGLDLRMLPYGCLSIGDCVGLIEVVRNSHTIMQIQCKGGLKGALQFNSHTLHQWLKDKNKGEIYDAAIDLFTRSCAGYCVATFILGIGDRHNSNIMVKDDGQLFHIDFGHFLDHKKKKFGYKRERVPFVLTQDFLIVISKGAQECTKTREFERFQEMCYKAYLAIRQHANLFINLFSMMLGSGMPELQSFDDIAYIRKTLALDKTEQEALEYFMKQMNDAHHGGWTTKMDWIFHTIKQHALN
Phosphatidylinositol 4,5-bisphosphate 3-kinase catalytic subunit gamma isoform (Homo sapiens), sequence (P48736 whole entry, looked up, canonical isoform): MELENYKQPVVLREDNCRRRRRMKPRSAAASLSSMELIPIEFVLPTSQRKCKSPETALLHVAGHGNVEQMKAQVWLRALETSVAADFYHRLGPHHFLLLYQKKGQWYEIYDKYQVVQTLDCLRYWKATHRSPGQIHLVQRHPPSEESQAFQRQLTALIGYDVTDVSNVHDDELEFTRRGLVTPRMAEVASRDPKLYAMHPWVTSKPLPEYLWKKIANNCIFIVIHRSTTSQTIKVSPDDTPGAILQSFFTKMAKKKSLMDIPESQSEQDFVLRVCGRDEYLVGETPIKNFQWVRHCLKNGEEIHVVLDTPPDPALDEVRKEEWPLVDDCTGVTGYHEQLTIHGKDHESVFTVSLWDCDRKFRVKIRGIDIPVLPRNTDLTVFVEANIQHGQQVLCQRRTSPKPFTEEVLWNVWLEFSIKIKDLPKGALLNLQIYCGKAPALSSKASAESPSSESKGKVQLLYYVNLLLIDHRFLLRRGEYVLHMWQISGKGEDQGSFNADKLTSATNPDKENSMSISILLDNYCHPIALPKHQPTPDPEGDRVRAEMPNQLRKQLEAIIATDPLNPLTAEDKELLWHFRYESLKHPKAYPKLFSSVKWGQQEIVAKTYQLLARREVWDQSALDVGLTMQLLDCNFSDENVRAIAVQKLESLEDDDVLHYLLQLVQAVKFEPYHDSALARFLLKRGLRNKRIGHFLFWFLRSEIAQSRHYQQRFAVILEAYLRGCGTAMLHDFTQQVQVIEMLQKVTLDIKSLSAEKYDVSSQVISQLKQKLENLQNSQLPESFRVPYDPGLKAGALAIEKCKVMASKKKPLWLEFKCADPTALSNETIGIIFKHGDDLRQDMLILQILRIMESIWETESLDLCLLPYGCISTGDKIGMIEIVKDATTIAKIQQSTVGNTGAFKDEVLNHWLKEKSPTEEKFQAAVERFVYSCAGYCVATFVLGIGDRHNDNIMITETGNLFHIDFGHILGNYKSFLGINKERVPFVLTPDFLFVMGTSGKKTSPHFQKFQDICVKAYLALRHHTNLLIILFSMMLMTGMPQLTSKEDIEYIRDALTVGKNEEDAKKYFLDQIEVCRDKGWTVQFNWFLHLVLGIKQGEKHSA

Activity [1] | Activity [2] | Kd [3] | Activity [4] | Activity [5] | Activity [6] | IC50 (T47D) | Kd [7] | SMILES
1.4% | 60% | 360 nM | 24% | 4.2% | 74% | 9600 nM |  | Nc1ncc(-c2cncc(NS(=O)(=O)c3ccccc3)c2)cn1
28% | 62% | 5200 nM | 43% | 38% | 67% |  |  | CS(=O)(=O)Nc1cncc(-c2cnc(N)nc2)c1
0.5% | 17% | 100 nM | 8.2% | 3.4% | 76% | 4700 nM |  | Cc1ccc(S(=O)(=O)Nc2cncc(-c3cnc(N)nc3)c2)cc1
0.7% | 22% | 220 nM | 7.2% | 4.7% | 56% | 8500 nM |  | Nc1ncc(-c2cncc(NS(=O)(=O)c3ccc(F)cc3F)c2)cn1
1.2% | 30% | 430 nM | 9.6% | 0.9% | 41% |  |  | Nc1ncc(-c2cncc(NS(=O)(=O)c3cccc(C(F)(F)F)c3)c2)cn1
34% | 100% |  |  |  |  |  |  | CC(=O)Nc1ncc(-c2cncc(NS(=O)(=O)c3ccccc3)c2)cn1
5.2% | 39% |  |  |  |  |  |  | CNc1ncc(-c2cncc(NS(=O)(=O)c3ccccc3)c2)cn1
0.7% | 42% | 250 nM | 5.3% | 0.1% | 78% |  |  | Cc1ccc(S(=O)(=O)Nc2cncc(-c3cnc(N)nc3)c2)cc1[N+](=O)[O-]
39% | 95% |  |  |  |  |  |  | O=S(=O)(Nc1cncc(-c2cnc3nccn3c2)c1)c1ccccc1
4.9% | 56% |  |  |  |  |  |  | O=S(=O)(Nc1cncc(-c2cnc3[nH]ccc3c2)c1)c1ccccc1
1.6% | 18% | 550 nM | 6.7% | 9.5% | 68% |  |  | Nc1ncc(-c2cncc(NS(=O)(=O)c3ccc([N+](=O)[O-])cc3)c2)cn1
1% | 92% | 230 nM | 25% | 4.2% | 96% |  | > 40000 nM | Nc1ncc(-c2cncc(NS(=O)(=O)c3ccc4ccccc4c3)c2)cn1
0.6% | 4% |  |  |  |  |  |  | O=S(=O)(Nc1cncc(-c2ccc3nccn3c2)c1)c1ccccc1
86% | 98% | > 40000 nM | 100% | 82% | 53% |  |  | Nc1cncc(-c2cnc(N)nc2)c1
69% | 97% | > 20000 nM | 98% | 65% | 79% |  |  | CC(=O)Nc1cncc(-c2cnc(N)nc2)c1
5.2% | 66% |  |  |  |  |  |  | Cc1nc(N)ncc1-c1cncc(NS(=O)(=O)c2ccccc2)c1
7.4% | 52% |  |  |  |  |  |  | O=S(=O)(Nc1cncc(-c2cccnc2)c1)c1ccccc1
18% | 89% |  |  |  |  |  |  | Cc1nc(N)nc(C)c1-c1cncc(NS(=O)(=O)c2ccccc2)c1
66% | 100% |  |  |  |  |  |  | CN(C)c1ncc(-c2cncc(NS(=O)(=O)c3ccccc3)c2)cn1
0% | 0% |  |  |  |  |  |  | Nc1ncc2cc(-c3cncc(NS(=O)(=O)c4ccccc4)c3)ccc2n1
1.7% | 87% | 500 nM | 20% | 4.3% | 39% |  |  | COc1ccc(S(=O)(=O)Nc2cncc(-c3cnc(N)nc3)c2)cc1
